Patent US20040224884A1, “Methods of screening for apoptosis-controlling agents for bone anabolic therapies and uses thereof” (priority 1998, published 2004)

Columns and labels:
[1] = system: osteoblastic cells derived from murine calvaria; assay: Etoposide-induced apoptosis of osteoblastic cells, trypan blue uptake; assay type: cell-based
Description: Osteoblastic cells derived from murine calvaria were pretreated with the sterols for 1 hour before the addition of the pro-apoptotic agent, etoposide. Apoptosis was determined after 6 hours by trypan blue uptake (Jilka et al, J. Bone and Min. Res. 13:793:802, 1998). * indicates p<0.05 versus etoposide alone, by analysis of variance (ANOVA) (Student-Newman-Keuls method).
Osteoblastic cells derived from murine calvaria were pretreated for 1 hour with the pure receptor antagonist ICI182,780 (10^−7 M) before the addition of the test agents (10^−8 M). Apoptosis was induced and quantified as described in FIG. 3. * indicates p<0.05 versus etoposide alone, by ANOVA (Student-Newman-Keuls method).
In this experiment, osteoblastic cells were derived from murine calvaria and were pretreated with the sterols for 1 hour before the addition of the pro-apoptotic agent, etoposide.
In these experiments, cells were pretreated with the indicated concentrations of the various compounds for 1 hour, in the absence or presence of the androgen receptor antagonist flutamide, before the addition of the proapoptotic agent etoposide. Apoptosis was determined after 6 hours by trypan blue uptake as described in FIG. 3.

human ERα = target: T1, human ERα (Homo sapiens, UniProt P03372); assay: ERE-luciferase reporter in 293 cells overexpressing hERα; assay type: cell-based; details: 3 copies of ERE driving luciferase
T1 construct: expressed in transfected cells; host or cells: 293 human embryonic kidney cells
T1 sequence (P03372 1-595): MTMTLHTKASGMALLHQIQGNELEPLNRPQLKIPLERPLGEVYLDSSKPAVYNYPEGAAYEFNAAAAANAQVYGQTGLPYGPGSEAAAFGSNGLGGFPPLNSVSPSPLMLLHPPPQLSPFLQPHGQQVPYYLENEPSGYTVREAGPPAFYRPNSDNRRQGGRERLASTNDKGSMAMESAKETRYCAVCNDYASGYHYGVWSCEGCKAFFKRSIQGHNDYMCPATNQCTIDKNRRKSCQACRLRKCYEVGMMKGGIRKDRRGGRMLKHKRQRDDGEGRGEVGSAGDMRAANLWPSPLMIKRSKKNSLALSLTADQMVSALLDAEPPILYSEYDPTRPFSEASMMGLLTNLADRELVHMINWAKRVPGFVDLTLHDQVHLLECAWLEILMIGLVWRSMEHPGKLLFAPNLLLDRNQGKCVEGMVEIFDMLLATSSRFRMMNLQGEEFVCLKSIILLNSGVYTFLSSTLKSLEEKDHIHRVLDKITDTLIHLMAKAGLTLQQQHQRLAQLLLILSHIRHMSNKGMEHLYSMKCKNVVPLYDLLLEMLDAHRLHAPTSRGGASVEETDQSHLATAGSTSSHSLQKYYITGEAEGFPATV
Source text: The human ERα was overexpressed in 293 cells lacking ERα along with a reporter construct containing 3 copies of a n estrogen response element driving the luciferase gene. Light units were counted and normalized to coexpressed b-galactosidase activity to control for differences in transfection efficiency. Results represent percent stimulation compared to ERα transfected cells, but not treated with the two agents. Each bar represents mean of duplicate experiments +/−SEM. *p<0.001 vs. cells not exposed to the sterols.
In this experiment, hERα was overexpressed in 293 cells (which lack constitutive ERα) along with a reporter construct containing 3 copies of an estrogen response element driving the luciferase gene. Light units were counted and normalized to coexpressed β-galactosidase activity to control for differences in transfection efficiency.

wild type HeLa cells = assay: Etoposide-induced apoptosis in wild type HeLa cells; assay type: cell-based, human; details: 10^−8 M, 1 h; etoposide 5×10^−5 M, 6 hour
Source text: CMV promoter alone and CMV promoter-driven cDNA for mERα or mErβ were stably transfected into HeLa cells. […] Cells were trypsinized, pelleted and trypan blue positive cells enumerated.
In this experiment, instead of calvaria cells, human HeLa cells which contain undetectable, if any, estrogen receptor were used. HeLa cells were stably transfected with either a CMV promoter-driven cDNA for the murine estrogen receptor-alpha (mERα) or a CMV promoter-driven cDNA for the murine estrogen receptor-beta (mERβ). […] Cells were trypsinized, pelleted and trypan blue positive cells were enumerated.

MLO-Y4 osteocytic cells = assay: Etoposide-induced apoptosis of MLO-Y4 osteocytic cells, trypan blue uptake; assay type: cell-based, murine
Description: Cells were pretreated with the indicated concentrations of the compounds for 1 hour before the addition of the pro-apoptotic agent etoposide. Apoptosis was determined after 6 hour by trypan blue uptake as described in FIG. 3. * indicates p<0.05 versus etoposide alone, by ANOVA (Student-Newman-Keuls method).
MLO-Y4 cells were pretreated for 1 hour with the pure receptor antagonist ICI182,780 (10^−7 M) before the addition of the test agents (10^−8 M). Apoptosis was induced and quantified as described in FIG. 3. * indicates p<0.05 versus etoposide alone, by ANOVA (Student-Newman-Keuls method).
In this experiment, MLO-Y4 cells were pretreated with the indicated concentrations of the various compounds for 1 h before the addition of the pro-apoptotic agent, etoposide. Apoptosis was determined after 6 h by trypan blue uptake as described in FIG. 3.

Compound: C[C@@]12CCC[C@H]1[C@@H]1CCc3cc(O)ccc3[C@H]1CC2 [estratriene-3-ol]
- potency in inhibiting apoptosis relative to 17β estradiol [1]: as potent a s 17β estradiol
- inhibition of etoposide-induced osteoblastic cell apoptosis ([1]; pretreated 1 hour before etoposide, apoptosis after 6 hours by trypan blue uptake): inhibition of etoposide-induced osteoblastic cell apoptosis was demonstrated
- anti-apoptotic effect on osteoblastic cells after pretreatment with ICI182,780 ([1]; test agent 10^−8 M, ICI182,780 10^−7 M, 1 h pretreatment): abrogated
- transactivation of an estrogen response element through estrogen receptor α (human ERα): did not transactivate
- effect on etoposide-induced apoptosis of wild type HeLa cells (wild type HeLa cells): none of the three compounds had any effect
- antiapoptotic effect on osteocytes after pretreatment with ICI182,780 (MLO-Y4 osteocytic cells; ICI182,780 10^−7 M, 1 h pretreatment): abrogated
- inhibition of etoposide-induced apoptosis of osteocytic cell line (MLO-Y4 osteocytic cells; MLO-Y4, pretreated 1 h before etoposide, apoptosis after 6 h): dose-dependently inhibited
